Experimental data taken from patent publication US8785424B2, “ngCycloartanone derivatives with anticancer activity” (Pierre Fabre Medicament, priority 2009, dated 2014).
Structures can show the parent of a compound that is named as a salt.

System: proteasome
Assay: Cellular proteasome inhibition test: accumulation of 4Ub-Luc reporter (luciferase activity) in DLD-1 4Ub-Luc cell line
Type: cell-based, human
Conditions: DLD-1 4Ub-Luc cells, 8 hours, epoxomicin = 100%
Experimental: Biological tests were carried out according to protocols described in the following articles: Ausseil F. et al. J. Biomol Screen. 2007, 12, 106-116 and Vandenberghe I. et al. Biochemical Pharmacology 2008, 76, 453-462.
In order to select novel proteasome inhibitor compounds, it is necessary to indirectly measure the activity of this proteasome within cells. To this end, we constructed a stable cell line, DLD-1 4Ub-Luc, arising from a human colon cancer cell line, which produces a chimeric reporter protein called 4Ub-Luc. This protein is a fusion between a 4-ubiquitin (4Ub) label and luciferase (Luc). This label is capable to direct every proteins that carry it toward the proteasome. The 4Ub-Luc protein is thus efficiently degraded by the proteasome, in contrast to the “wild” non-fused Luc protein. When the DLD-1 4Ub-Luc cell line is treated with a proteasome inhibitor, the fusion protein is much less efficiently degraded and accumulates in the cell. This accumulation is detected by an increase in luciferase activity in the treated extract compared to the extract from untreated cells. The control consists of verifying that the inhibitor has no effect on accumulation of the wild Luc protein produced by the stable DLD-1 RF cell line. For both cell lines and for each product an induction factor is determined for the product tested (or the reference) corresponding to the ratio between the luciferase activities measured in cells treated with this product (or the reference) and cells treated with solvent alone.
The product's activity is then defined by its relative induction factor, i.e., the ratio of its induction factor (IF % luminescence) to that of the reference molecule epoxomicin (IF=100%; see data presented in the table below).
Thus, the test established by Pierre-Fabre is a cellular test that has the advantage, compared to a purely enzymatic test, of detecting only products capable of penetrating the cell.
Two cell lines are used for this test: DLD-1 RF and DLD-1 4Ub-Luc. The culture medium used is as follows: • MEM • 5% fetal calf serum • 5 ml of penicillin-streptomycin • 2.5 ml of FUNGIZONE® (Amphotericin B) • 10 ml of […]
Day 1: Inoculate white 96-well culture-treated plates (PerkinElmer White ViewPlate, product no. 6005181) with 100 μl of 1·10^5 c/ml cell suspension per well. Incubate for 24 hours so that the cells adhere. On each plate five columns will be inoculated with DLD-1 4Ub-Luc and five others with DLD-1 RF according to diagram 1 below.
Day 2: Remove the medium by turning the plates upside down on cotton, and then carry out the treatment with the compounds of the invention, with solvent alone or with a reference compound such as epoxomicin. […]
The columns are paired (examples 2 and 8, 3 and 9, 4 and 10 and 5 and 11) and treated with the same compound. Columns 6 and 7 receive the experimental control, namely 0.1% DMSO in culture medium for wells B, C, D, and E of columns 6 and 7, and the positive control (10^−7 M epoxomicin) in wells F and G.
After incubation, turn the plate upside down on cotton to empty the wells, rinse with 50 μl of PBS to remove any trace of the cytotoxin tested and then add 50 μl of 5× passive lysis buffer (Promega, product no. E1941) diluted to ⅕ in water. Shake energetically using a plate shaker for 5 to 10 minutes at room temperature before freezing at −20° C.
Luciferase activity is measured using a Luciferase Assay System 10-Pack kit (Promega, product no. E1501).
On the day luciferase activity is to be measured, defrost the plates and wait until they have returned to room temperature. The optimal temperature for luciferase activity is 20-25° C.
Reconstitute the firefly luciferase substrate by defrosting the buffer and then adding 10 ml of buffer to the bottle containing the freeze-dried substrate. Wait until the solution is at room temperature before beginning the assay. […]

[1] = concentration tested 5 · 10^−6 M
[2] = concentration tested 5 · 10^−7 M

Row | SMILES | relative induction factor (IF % luminescence) versus epoxomicin (concentration tested 5 · 10^−6 M, hydrochloride) [%] | relative induction factor (IF % luminescence) versus epoxomicin (concentration tested 5 · 10^−7 M, hydrochloride) [%] | relative induction factor (IF % luminescence) versus epoxomicin (concentration tested 10^−5 M, hydrochloride) [%] | relative induction factor (IF % luminescence) versus epoxomicin (concentration tested 10^−6 M, hydrochloride) [%] | relative induction factor (IF % luminescence) versus epoxomicin [1] [%] | relative induction factor (IF % luminescence) versus epoxomicin [2] [%] | relative induction factor (IF % luminescence) versus epoxomicin (concentration tested 10^−6 M) [%] | relative induction factor (IF % luminescence) versus epoxomicin (concentration tested 10^−5 M) [%]
1 | C=C(C(=O)[C@H](O)[C@@H](C)[C@H]1[C@@H](OC(C)=O)C[C@@]2(C)[C@@H]3CC[C@H]4[C@H](C)C(=O)C=C[C@@]45C[C@@]35CC[C@]12C)[C@@H](C)COC(=O)N1CCN(C)CC1 [Compound 24, 26-N—(N-methylpiperazine)carbamate-22-deacetyl-neoboutomellerone hydrochloride] | 5 | 12 | 1 | 70 | – | – | – | –
2 | C=C(C(=O)[C@H](OC(C)=O)[C@@H](C)[C@H]1[C@@H](OC(C)=O)C[C@@]2(C)[C@@H]3CC[C@H]4[C@H](C)/C(=N/O)C=C[C@@]45C[C@@]35CC[C@]12C)[C@@H](C)CO [Compound 27, 3-anti-oxime-neoboutomellerone] | – | – | – | – | 103 | 1 | 1 | –
3 | C=C([C@@H](C)COC)C1(O)O[C@H]2C[C@@]3(C)C4CCC5[C@H](C)C(=O)C=C[C@@]56C[C@@]46CC[C@]3(C)[C@H]2[C@H](C)[C@H]1OC(C)=O (stereo partly drawn) [Compound 51, 16-deacetyl-26-methoxy-neoboutomellerone-hemiacetal] | – | – | – | – | 31 | – | 1 | 60
4 | C=C(C(=O)[C@H](OC(C)=O)[C@@H](C)[C@H]1[C@@H](OC(C)=O)C[C@@]2(C)[C@@H]3CC[C@H]4[C@H](C)C(=O)C=C[C@@]45C[C@@]35CC[C@]12C)[C@@H](C)COC [Compound 19, 26-methoxy-neoboutomellerone] | – | – | – | – | 45 | 1 | 40 | –
5 | C=C(C(=O)[C@H](OC(C)=O)[C@@H](C)[C@H]1[C@@H](OC(C)=O)C[C@@]2(C)C3CCC4[C@H](C)C(=O)C=C[C@@]45C[C@@]35CC[C@]12C)[C@@H](C)COP(=O)(OCC)OCC (stereo partly drawn) [Compound 92, 26-(diethylphosphate)-neoboutomellerone] | – | – | – | – | 16 | 3 | 43 | 2
6 | C=C(C(=O)[C@H](O)[C@@H](C)[C@H]1[C@@H](OC(C)=O)C[C@@]2(C)[C@@H]3CC[C@H]4[C@H](C)C(=O)C[C@H](O)[C@@]45C[C@@]35CC[C@]12C)[C@@H](C)CO [Compound 15, 1-hydroxy-2-hydro-22-deacetyl-neoboutomellerone] | – | – | – | – | 11 | – | 2 | 74
7 | C=C(C(=O)[C@H](OC(C)=O)[C@@H](C)[C@H]1[C@@H](OC(C)=O)C[C@@]2(C)C3CCC4[C@H](C)C(=O)C=C[C@@]45C[C@@]35CC[C@]12C)[C@@H](C)COC(=O)CNC(=O)OC(C)(C)C (stereo partly drawn) [Compound 56, Neoboutomellerone 26-N-Boc-glycinate] | – | – | – | – | 34 | – | 21 | 7
8 | C=C(C(=O)[C@H](O)[C@@H](C)[C@H]1[C@@H](OC(C)=O)C[C@@]2(C)C3CCC4[C@H](C)C(=O)C=C[C@@]45C[C@@]35CC[C@]12C)[C@@H](C)COC(C)=O (stereo partly drawn) [Compound 17, 26-acetyl-22-deacetyl-neoboutomellerone] | – | – | – | – | 29 | 2 | 26 | 6
9 | CC(=O)O[C@H]1C[C@@]2(C)C3CCC4[C@H](C)C(=O)C=C[C@@]45C[C@@]35CC[C@]2(C)[C@H]1[C@H](C)[C@@H](OC(C)=O)C1=C(CN=[N+]=[N-])C(C)CO1 (stereo partly drawn) [Compound 47, Azido-methyl-dihydro-furan-neoboutomellerone Derivative] | – | – | – | – | 78 | – | 7 | 36
10 | C=C(C(=O)[C@H](OC(C)=O)[C@@H](C)[C@H]1[C@@H](OC(C)=O)C[C@@]2(C)[C@@H]3CC[C@H]4[C@H](C)C(=O)C=C[C@@]45C[C@@]35CC[C@]12C)C(C)C [Compound 8, 26-dehydroxy-neoboutomellerone] | – | – | – | – | 74 | – | 7 | 19
11 | C=C(C(=O)[C@H](OC(C)=O)[C@@H](C)[C@H]1[C@@H](OC(C)=O)C[C@@]2(C)C3CCC4[C@H](C)C(=O)C=C[C@@]45C[C@@]35CC[C@]12C)[C@@H](C)COC(=O)CCC(=O)O (stereo partly drawn) [Compound 68, 26-succinate-neoboutomellerone] | – | – | – | – | 18 | 1 | 52 | 4
12 | C=C(C(=O)[C@H](OC(=O)CNC(=O)OC(C)(C)C)[C@@H](C)[C@H]1[C@@H](OC(C)=O)C[C@@]2(C)C3CCC4[C@H](C)C(=O)C=C[C@@]45C[C@@]35CC[C@]12C)[C@@H](C)COC(C)=O (stereo partly drawn) [Compound 60, 22-deacetyl-neoboutomellerone 22-(N-Boc-glycinate)-26-acetyl] | – | – | – | – | 4 | 76 | 71 | 2
13 | CC(=O)O[C@H]1C[C@@]2(C)[C@@H]3CC[C@H]4[C@H](C)C(=O)C=C[C@@]45C[C@@]35CC[C@]2(C)[C@H]1[C@H](C)[C@@H](O)C(=O)C=C(C)C [Compound 10, 22-deacetyl,26-dehydroxy,24,25-dehydro-nor-neoboutomellerone] | – | – | – | – | 5 | – | 1 | 53
14 | C=C(C(=O)[C@H](OC(C)=O)[C@@H](C)[C@H]1[C@@H](OC(C)=O)C[C@@]2(C)C3CCC4[C@H](C)C(=O)C=C[C@@]45C[C@@]35CC[C@]12C)[C@@H](C)COP(=O)(O)O (stereo partly drawn) [Compound 89, 26-phosphate-neoboutomellerone] | – | – | – | – | 3 | – | 1 | 40
15 | C=C(C(=O)[C@H](O)[C@@H](C)[C@H]1[C@@H](OC(C)=O)C[C@@]2(C)[C@@H]3CC[C@H]4[C@H](C)C(=O)C=C[C@@]45C[C@@]35CC[C@]12C)[C@@H](C)COC(=O)Nc1ccc(N(C)C)cc1 [Compound 26, 26-N-(4-N,N-dimethylaniline)carbamate-22-deacetyl-neoboutomellerone] | – | – | – | – | 54 | 11 | 53 | 37
